Tested on: 317291-083-R-J1-PDC complex spheroid growth
Assay: Anticancer human tumor 317291-083-R-J1-PDC patient-derived soft tissue sarcoma cell line growth inhibition [Asc]
Conditions: for IC50: curve of first compound; for viability, T/C: stronger effect = lower value
Summary of the method: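 Spheroid model: tumor line + HUVEC + hMSC. Single agents and combinations; top conc. at/near clinical Cmax (10 microM if undetermined), half-log dilutions. DMSO stocks at 800-fold test concentration.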

[1] = second compound 0.0316 µM, first compound 0.0316 µM
[2] = second compound 0.0316 µM, first compound 0.1 µM
[3] = second compound 0.0316 µM, first compound 0.316 µM
[4] = second compound 0.0316 µM, first compound 1 µM
[5] = second compound 0.1 µM, first compound 0.0316 µM
[6] = second compound 0.1 µM, first compound 0.1 µM
[7] = second compound 0.1 µM, first compound 0.316 µM
[8] = second compound 0.1 µM, first compound 1 µM
[9] = second compound 0.316 µM, first compound 0.0316 µM
[10] = second compound 0.316 µM, first compound 0.1 µM
[11] = second compound 0.316 µM, first compound 0.316 µM
[12] = second compound 0.316 µM, first compound 1 µM
[13] = second compound 1 µM, first compound 0.0316 µM
[14] = second compound 1 µM, first compound 0.1 µM
[15] = second compound 1 µM, first compound 0.316 µM
[16] = second compound 1 µM, first compound 1 µM
[17] = second compound 3.16 µM, first compound 0.0316 µM
[18] = second compound 3.16 µM, first compound 0.1 µM
[19] = second compound 3.16 µM, first compound 0.316 µM
[20] = second compound 3.16 µM, first compound 1 µM
[21] = second compound 10 µM, first compound 0.0316 µM
[22] = second compound 10 µM, first compound 0.1 µM
[23] = second compound 10 µM, first compound 0.316 µM
[24] = second compound 10 µM, first compound 1 µM
[25] = second compound 0.0316 µM, first compound 0.00316 µM
[26] = second compound 0.0316 µM, first compound 0.01 µM
[27] = second compound 0.1 µM, first compound 0.00316 µM
[28] = second compound 0.1 µM, first compound 0.01 µM
[29] = second compound 0.316 µM, first compound 0.00316 µM
[30] = second compound 0.316 µM, first compound 0.01 µM
[31] = second compound 1 µM, first compound 0.00316 µM
[32] = second compound 1 µM, first compound 0.01 µM
[33] = second compound 3.16 µM, first compound 0.00316 µM
[34] = second compound 3.16 µM, first compound 0.01 µM
[35] = second compound 10 µM, first compound 0.00316 µM
[36] = second compound 10 µM, first compound 0.01 µM
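Also: compound exposure lasted seven days after spheroids formed for three days.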
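For viability, T/C in this document: 100% = DMSO vehicle control wells.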

## C=CC(=O)N1CCN(c2nc(=O)n(-c3c(C)ccnc3C(C)C)c3nc(-c4c(O)cccc4F)c(F)cc23)C(C)C1 (stereo unspecified) + Cc1c(S(C)(=O)=O)c(-c2cc(F)cc(N3CCN(c4ccc(NS(=O)(=O)c5ccc(NC(CCN6CCC(C(=O)OCCCP(=O)(O)O)CC6)CSc6ccccc6)c(S(=O)(=O)C(F)(F)F)c5)cc4)CC3)c2)c(-c2ccc(Cl)cc2)n1C(C)C
Second compound 0.0316 µM
  IC50: > 10000 nM
Second compound 0.1 µM
  IC50: > 10000 nM
Second compound 0.316 µM
  IC50: > 10000 nM
Second compound 1 µM
  IC50: > 10000 nM
Second compound 3.16 µM
  IC50: 8050 nM
Second compound 10 µM
  IC50: 9460 nM
[1]
  viability, T/C: 108%
[2]
  viability, T/C: 86.8%
[3]
  viability, T/C: 108%
[4]
  viability, T/C: 98.3%
Second compound 0.0316 µM, first compound 3.16 µM
  viability, T/C: 98.3%
Second compound 0.0316 µM, first compound 10 µM
  viability, T/C: 66.1%
[5]
  viability, T/C: 84.4%
[6]
  viability, T/C: 97.7%
[7]
  viability, T/C: 86.1%
[8]
  viability, T/C: 86.5%
Second compound 0.1 µM, first compound 3.16 µM
  viability, T/C: 100%
Second compound 0.1 µM, first compound 10 µM
  viability, T/C: 60.1%
[9]
  viability, T/C: 91%
[10]
  viability, T/C: 102%
[11]
  viability, T/C: 85.3%
[12]
  viability, T/C: 90.6%
Second compound 0.316 µM, first compound 3.16 µM
  viability, T/C: 83.9%
Second compound 0.316 µM, first compound 10 µM
  viability, T/C: 59.7%
[13]
  viability, T/C: 81.5%
[14]
  viability, T/C: 84.3%
[15]
  viability, T/C: 96.2%
[16]
  viability, T/C: 80.2%
Second compound 1 µM, first compound 3.16 µM
  viability, T/C: 81.7%
Second compound 1 µM, first compound 10 µM
  viability, T/C: 51.7%
[17]
  viability, T/C: 82.4%
[18]
  viability, T/C: 70.7%
[19]
  viability, T/C: 87.8%
[20]
  viability, T/C: 74.7%
Second compound 3.16 µM, first compound 3.16 µM
  viability, T/C: 79.5%
Second compound 3.16 µM, first compound 10 µM
  viability, T/C: 43.2%
[21]
  viability, T/C: 87.1%
[22]
  viability, T/C: 90.6%
[23]
  viability, T/C: 93.2%
[24]
  viability, T/C: 88.6%
Second compound 10 µM, first compound 3.16 µM
  viability, T/C: 96.6%
Second compound 10 µM, first compound 10 µM
  viability, T/C: 47.9%

## COc1c(OCCCN2CCOCC2)ccc2c3n(c(=NC(=O)c4cnc(N)nc4)nc12)CCN3 + Cc1c(S(C)(=O)=O)c(-c2cc(F)cc(N3CCN(c4ccc(NS(=O)(=O)c5ccc(NC(CCN6CCC(C(=O)OCCCP(=O)(O)O)CC6)CSc6ccccc6)c(S(=O)(=O)C(F)(F)F)c5)cc4)CC3)c2)c(-c2ccc(Cl)cc2)n1C(C)C
Second compound 0.0316 µM
  IC50: 104 nM
Second compound 0.1 µM
  IC50: 88 nM
Second compound 0.316 µM
  IC50: 88.4 nM
Second compound 1 µM
  IC50: 78 nM
Second compound 3.16 µM
  IC50: 62.9 nM
Second compound 10 µM
  IC50: 95.3 nM
[25]
  viability, T/C: 116%
[26]
  viability, T/C: 116%
[1]
  viability, T/C: 78%
[2]
  viability, T/C: 52.9%
[3]
  viability, T/C: 27%
[4]
  viability, T/C: 13%
[27]
  viability, T/C: 106%
[28]
  viability, T/C: 76.6%
[5]
  viability, T/C: 62.5%
[6]
  viability, T/C: 54.7%
[7]
  viability, T/C: 28.1%
[8]
  viability, T/C: 13.5%
[29]
  viability, T/C: 91.3%
[30]
  viability, T/C: 85.5%
[9]
  viability, T/C: 69.7%
[10]
  viability, T/C: 44.7%
[11]
  viability, T/C: 30.1%
[12]
  viability, T/C: 11.7%
[31]
  viability, T/C: 86.2%
[32]
  viability, T/C: 88%
[13]
  viability, T/C: 63.2%
[14]
  viability, T/C: 44.8%
[15]
  viability, T/C: 28.2%
[16]
  viability, T/C: 12.1%
[33]
  viability, T/C: 65.6%
[34]
  viability, T/C: 54.8%
[17]
  viability, T/C: 60.9%
[18]
  viability, T/C: 43.7%
[19]
  viability, T/C: 21.3%
[20]
  viability, T/C: 9.02%
[35]
  viability, T/C: 100%
[36]
  viability, T/C: 90.2%
[21]
  viability, T/C: 70.7%
[22]
  viability, T/C: 54.2%
[23]
  viability, T/C: 19.2%
[24]
  viability, T/C: 7.2%

## NC1CCC(NC2CC2c2ccccc2)CC1 (stereo unspecified) + Cc1c(S(C)(=O)=O)c(-c2cc(F)cc(N3CCN(c4ccc(NS(=O)(=O)c5ccc(NC(CCN6CCC(C(=O)OCCCP(=O)(O)O)CC6)CSc6ccccc6)c(S(=O)(=O)C(F)(F)F)c5)cc4)CC3)c2)c(-c2ccc(Cl)cc2)n1C(C)C
Second compound 0.0316 µM
  IC50: > 100 nM
Second compound 0.1 µM
  IC50: > 100 nM
Second compound 0.316 µM
  IC50: > 100 nM
Second compound 1 µM
  IC50: > 100 nM
Second compound 3.16 µM
  IC50: > 100 nM
Second compound 10 µM
  IC50: > 100 nM
Second compound 0.0316 µM, first compound 0.000316 µM
  viability, T/C: 120%
Second compound 0.0316 µM, first compound 0.001 µM
  viability, T/C: 87.3%
[25]
  viability, T/C: 98.2%
[26]
  viability, T/C: 99%
[1]
  viability, T/C: 106%
[2]
  viability, T/C: 86.5%
Second compound 0.1 µM, first compound 0.000316 µM
  viability, T/C: 107%
Second compound 0.1 µM, first compound 0.001 µM
  viability, T/C: 78.9%
[27]
  viability, T/C: 90.2%
[28]
  viability, T/C: 76.9%
[5]
  viability, T/C: 77.6%
[6]
  viability, T/C: 83.9%
Second compound 0.316 µM, first compound 0.000316 µM
  viability, T/C: 93.9%
Second compound 0.316 µM, first compound 0.001 µM
  viability, T/C: 100%
[29]
  viability, T/C: 80.2%
[30]
  viability, T/C: 106%
[9]
  viability, T/C: 109%
[10]
  viability, T/C: 90.5%
Second compound 1 µM, first compound 0.000316 µM
  viability, T/C: 73.3%
Second compound 1 µM, first compound 0.001 µM
  viability, T/C: 75%
[31]
  viability, T/C: 93%
[32]
  viability, T/C: 74.3%
[13]
  viability, T/C: 107%
[14]
  viability, T/C: 74.1%
Second compound 3.16 µM, first compound 0.000316 µM
  viability, T/C: 72.7%
Second compound 3.16 µM, first compound 0.001 µM
  viability, T/C: 81.7%
[33]
  viability, T/C: 79%
[34]
  viability, T/C: 69.9%
[17]
  viability, T/C: 87.6%
[18]
  viability, T/C: 76%
Second compound 10 µM, first compound 0.000316 µM
  viability, T/C: 95.6%
Second compound 10 µM, first compound 0.001 µM
  viability, T/C: 91.9%
[35]
  viability, T/C: 97.8%
[36]
  viability, T/C: 87.8%
[21]
  viability, T/C: 94%
[22]
  viability, T/C: 73.7%
